Legend:
[1] = tested on: H1299 transfectants of wild type, H694R and E1384K ALKs; assay: WST-1 cell growth, wild type and mutated ALK transfectants together; type: cell-based; settings: both wild type and mutated ALK transfectants
Source text: The full-length cDNA of ALK-wild type was inserted into pCDNA3.0 vector by restriction sites Hind III and Not I. All ALK mutations were generated from the template of pCDNA3.0-ALK-wild type full-length construct using site-directed mutagenesis. H1299 and NIH3T3 cells were maintained in Dulbecco's Modified Eagle Medium (DMEM) medium supplemented with 10% Fetal Bovine Serum (FBS) and streptomycin. The H1299 and NIH3T3 cells were transfected with the expression constructs by Lipofectamine 2000 (Invitrogen) and further selected by G418 to establish mixtures of ALK-expressed transfectants.
For analysis of cell growth, a total of 1×10^3 cells/well was seeded in 96-well plate. After different culturing time, 10 μl/well WST-1 reagent (Roche Diagnostics) was added for reaction at 37° C. for 50 minutes. The absorbance at 450 nm was measured.

phosphorylated-Y1604 ALK [2] = assay: Western blotting of phosphorylated-Y1604 ALK expression in H1299 transfectants; type: cell-based; settings: both wild type and mutated ALK transfectants
Source text: For Western blotting analysis, the membranes were probed with specific antibodies against HA (Covance), phospho-tyrosine (4G10; Upstate Biotechnology), STAT3 (sc-482; Santa Cruz) and α-tubulin (DM1A; NeoMarkers). The phospho-ALK (Tyr1604), phospho-Akt ([…]), phospho-STAT3 (Tyr705), phospho-ERK (Thr202/Tyr204), Akt and ERK antibodies were purchased from Cell Signaling. For IHC staining assay, the tissue sections were stained with specific antibodies against phospho-ALK (pY1604; Epitomics), ALK (4204-1; Epitomics), phospho-STAT3 (Tyr705, D3A7; Cell Signaling) and phospho-Akt (Ser473, 736E11; Cell Signaling). The ALK inhibitor WHI-P154 was purchased from Calbiochem.
Cells were lysed in RIPA buffer (200 mM Tris, 150 mM NaCl, 1 mM EDTA, 1% NP40, 1 mM PMSF, 1 mM DTT) with addition of 1× phosphatase inhibitor cocktail set II from Calbiochem and 1× cocktails of protease inhibitor from Roche. The protein concentration was measured by BCA protein assay kit (Pierce Chemical). The equal amounts of cell lysates were subjected to SDS-PAGE, transferred to NC membranes, and then probed with specific antibody for protein detection. For co-immunoprecipitation assay, the equal amounts of cell lysates were firstly incubated with anti-HA antibody for one hour and subsequently reacted with protein A/G for overnight. […]

H1299 cells [3] = assay: Anchorage-independent growth (soft agar) assay; type: cell-based; settings: compared with DMSO control
Description: A total of 2×10^4 H1299 or NIH3T3 transfectants were mixed in a final 0.3% agarose and plated onto the 60-mm plate containing 0.5% agarose. These cells were further cultured in 5% CO2 incubator at 37° C. for one month. The plates were dehydrated at room temperature and then stained with 0.3% crystal violet for visualizing colonies. The colony numbers were counted by using Image-pro plus analysis program.

H1299 cells [4] = assay: Boyden chamber cell migration assay; type: cell-based; settings: compared with DMSO control
Description: The cell migration capability was examined by Boyden chamber assay. Briefly, a total of 2×10^4 H1299 or NIH3T3 transfectants were inoculated into the cell migration insert (BD Biosciences) containing 350 μl DMEM medium alone, and the insert was placed into the well containing 750 μl complete DMEM medium in 24-well plate. After 24 hours incubation, the migrated cells were fixed with 100% methanol and stained by Giemsa's solution (Merck). The numbers of migrated cells were counted by using Image-pro plus analysis program.

[5] = tested on: H694R and E1384K ALK H1299 transfectants xenograft; assay: In vivo xenograft tumor formation assay; parameters: species or system BALB/c NU mice; settings: ALK mutations-bearing mice, 1 mg/kg/day intravenously, versus DMSO control
Description: (§1) Animal protocol was approved by the Institutional Animal Safety Committee. A total of 1×10^6 ALK-wild type or mutants expressed H1299 transfectants were mixed with matrigel (BD) and then subcutaneously injected into the right flank of four-week-old BALB/c NU mice. For WHI-P154 treatments, the nude mice were randomly divided into two groups when the mean tumor volume reached 20-50 mm^3. DMSO or WHI-P154 (1 mg/kg/day) was intravenously injected daily. The tumor volumes were measured weekly and calculated according to the formula: volume=length×width^2×0.52.

phosphorylated-Y1604 ALK [6] = assay: IHC staining of phosphorylated-Y1604 ALK in xenograft tumor sections; type: in vivo, nude mice; settings: H694R and E1384K xenograft tumor sections, versus DMSO control
Description: Human lung cancer tissue arrays containing 37 normal lung and 263 lung cancer sections from Pantomics (Luc961, Luc962, Luc1501, Luc1502 and Luc1503) were deparaffinized and the frozen tumor sections from the xenograft nude mice were fixed in 3% formaldehyde solution. All sections were treated in 3% H2O2 buffer for 30 minutes to inactivate the endogenous peroxidase activities, and then treated with 0.01M sodium citrate buffer for antigen retrieval. After blocking with 10% normal goat serum, these sections were reacted with specific antibodies at 4° C. for overnight. Subsequently, these sections were incubated with Super Picture HRP polymer conjugate secondary antibody (Zymed Laboratories), and then stained with DAB chromagen (Zymed Laboratories). These sections were also stained with Hematoxylin (DAKO).
as §1

[7] = tested on: GFP-labeled H1299 transfectants of H694R and E1384K ALK; assay: In vivo metastasis assay (tail vein injected lung metastasis model); parameters: species or system nude mice; settings: 1 mg/kg/day intravenously
Description: In order to examine the in vivo metastatic capability, ALK wild type or mutations expressed H1299 transfectants were infected with GFP-lentivirus to generate the GFP fluorescence-labeled cells. A total of 2×10^6 cells were injected into nude mice through tail vein for measuring lung metastasis. For investigation of the tumor suppressive effects using ALK inhibitor, the nude mice were intravenously injected daily with WHI-P154 (1 mg/kg/day) after cell inoculation for 14 days. The survival rate was recorded daily and scarified the rest mice after 105 days. The pulmonary metastasis of GFP-labeled H1299 transfectants were visualized by fluorescence stereomicroscope.

SMILES: COc1cc2ncnc(Nc3ccc(O)c(Br)c3)c2cc1OC [WHI-P154]
- inhibition of cell growth [1]: dose-dependent inhibition
- inhibition of expression of phosphorylated-Y1604 ALK (phosphorylated-Y1604 ALK [2]): dose-dependent inhibition
- inhibition of soft agar growth (H1299 cells [3]): profound inhibition
- inhibition of cell migration (H1299 cells [4]): profound inhibition
- tumor growth [5]: significant reduction of tumor growth
- expression of phosphorylated-Y1604 ALK in tumor sections (phosphorylated-Y1604 ALK [6]): significant lower expression of phosphorylated-Y1604 ALK
- survival ([7]; mice with H694R and E1384K mutations): survive as long as control mice
- lung metastasis ([7]; mutation-bearing mice): significantly suppresses lung metastasis

— US20120129869A1, “PHOSPHORYLATION AND MUTATIONS OF ANAPLASTIC LYMPHOMA KINASE AS A DIAGNOSTIC AND THERAPEUTIC TARGET IN LUNG CANCER” (Academia Sinica, priority 2010, published 2012)
